One may read the IC50 as the point on the concentration scale where inhibition reaches its midpoint. A low value points to inhibition by little substance.

The assay deals with T1, Tyrosinase (Agaricus bisporus, UniProt O42713).
T1 sequence (O42713 whole entry): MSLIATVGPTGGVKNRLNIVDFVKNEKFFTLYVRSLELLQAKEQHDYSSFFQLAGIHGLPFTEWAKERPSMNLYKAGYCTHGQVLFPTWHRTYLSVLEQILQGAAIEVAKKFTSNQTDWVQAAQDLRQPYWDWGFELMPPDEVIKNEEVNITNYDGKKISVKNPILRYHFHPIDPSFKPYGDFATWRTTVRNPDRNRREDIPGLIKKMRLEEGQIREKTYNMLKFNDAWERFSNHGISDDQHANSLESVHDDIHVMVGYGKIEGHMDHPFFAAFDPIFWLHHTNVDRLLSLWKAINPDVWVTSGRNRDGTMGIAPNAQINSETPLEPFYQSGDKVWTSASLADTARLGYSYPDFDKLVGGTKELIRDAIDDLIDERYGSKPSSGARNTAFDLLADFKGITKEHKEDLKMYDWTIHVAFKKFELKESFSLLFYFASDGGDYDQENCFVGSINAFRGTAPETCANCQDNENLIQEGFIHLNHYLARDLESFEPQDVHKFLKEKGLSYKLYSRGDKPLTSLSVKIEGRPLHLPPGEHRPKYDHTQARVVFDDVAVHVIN
Description: Inhibition of mushroom tyrosinase using L-tyrosine as substrate measured after 30 mins
`CCCCCCCCC(=O)N/C(=C\c1ccc(O)cc1)C(=O)O`: the midpoint of inhibition, the IC50, lay at 250 µM.
`O=C(O)/C(=C/c1ccc(O)cc1)NC(=O)c1ccccc1`: it took 180 µM to reach half-maximal inhibition (IC50).
The result for `CC(=O)N/C(=C\c1ccc(O)cc1)C(=O)O` reads 65 µM.

For the origin of these results see ChEMBL document CHEMBL4480460, “Concise Modular Synthesis of Thalassotalic Acids A-C” (J Nat Prod, 2019).
